From US20100028889A1, “COMPANION DIAGNOSTIC ASSAYS FOR CANCER THERAPY” (ABBOTT LABORATORIES, priority 2006, published 2010)
pEC50: −log10 of the molar value.

Experiments:
Test in all cases: sensitivity of leukemia/lymphoma cell line, 5 uM cut-off
Type in all cases: cell-based
[1] = test system: A3; details: Homo sapiens, read-out: sensitivity class by EC50
Experimental: (§1) The following SCLC cell lines were obtained from ATCC (Manassis, Va.): NCI-H889, NCI-H1963, NCI-H1417, NCI-H146, NCI-H187, DMS53, NCI-H510, NCI-H209, NCI-H211, NCI-H345, NCI-H524, NCI-H69, DMS79, SHP77, NCI-H1688, NCI-H446, NCI-H740, NCI-H1048, NCI-H82, NCI-H196, SW1271, H69AR, NCI-H526, NCI-H865, NCI-H748, NCI-H711, and DMS114. All cells were cultured in the ATCC recommended media at 37° C. in a humidified atmosphere containing 5% CO2. The following leukemia and lymphoma cell lines were obtained from ATCC (Manassis, Va.): MV-4-11, RS4;11, Loucy, KG-1A, DOHH2, Rs11380, CCRF-HSB-2, CCRF-CEM, CEM/C1, Reh, SUP-B15, MOLT-4, SUDHL4, HL-60, RPMI 8226, A3, Daudi, WSU-NHL, Pfeiffer, Jurkat I 9.2, Jurkat, MEG-01, U-937, K-562, and Raji.
(§2) The 25 leukemia/lymphoma cell lines were also tested for sensitivity to ABT-737 using the 5 uM cut-off, and sensitive cell lines were MV-4-11, RS4;11, Loucy, KG-1A, DOHH2, Rs11380, CCRF-HSB-2, CCRF-CEM, CEM/C1, Reh, SUP-B15, MOLT-4, SUDHL4, HL-60, RPMI 8226, A3, Daudi, WSU-NHL, Pfeiffer, and Jurkat I 9.2, and the resistant cell lines Jurkat, MEG-01, U-937, K-562, and Raji.
as §2, with “ABT-263” for “ABT-737”

[2] = test system: Daudi; details: Homo sapiens, read-out: sensitivity class by EC50
Experimental: as §1, §2
as §2, with “ABT-263” for “ABT-737”

[3] = test system: HL-60; details: Homo sapiens, read-out: sensitivity class by EC50
Experimental: as §1, §2
as §2, with “ABT-263” for “ABT-737”

[4] = test system: SUDHL4; details: Homo sapiens, SU-DHL-4, read-out: sensitivity class by EC50
Experimental: as §1, §2
as §2, with “ABT-263” for “ABT-737”

[5] = test system: MEG-01; details: Homo sapiens, read-out: sensitivity class by EC50
Experimental: as §1, §2
as §2, with “ABT-263” for “ABT-737”

[6] = test system: U-937; details: Homo sapiens, read-out: sensitivity class by EC50
Experimental: as §1, §2
as §2, with “ABT-263” for “ABT-737”

[7] = test system: Jurkat I 9.2; details: Homo sapiens, read-out: sensitivity class by EC50
Experimental: as §1, §2
as §2, with “ABT-263” for “ABT-737”

[8] = test system: DOHH2; details: Homo sapiens, DOHH-2, read-out: sensitivity class by EC50
Experimental: as §1, §2
as §2, with “ABT-263” for “ABT-737”

[9] = test system: Loucy; details: Homo sapiens, read-out: sensitivity class by EC50
Experimental: as §1, §2
as §2, with “ABT-263” for “ABT-737”

[10] = test system: MV-4-11; details: Homo sapiens, MV4-11, read-out: sensitivity class by EC50
Experimental: as §1, §2
as §2, with “ABT-263” for “ABT-737”

[11] = test system: Pfeiffer; details: Homo sapiens, read-out: sensitivity class by EC50
Experimental: as §1, §2
as §2, with “ABT-263” for “ABT-737”

[12] = test system: RS4;11; details: Homo sapiens, read-out: sensitivity class by EC50
Experimental: as §1, §2
as §2, with “ABT-263” for “ABT-737”

[13] = test system: Jurkat; details: Homo sapiens, read-out: sensitivity class by EC50
Experimental: as §1, §2
as §2, with “ABT-263” for “ABT-737”

[14] = test system: K-562; details: Homo sapiens, K562, read-out: sensitivity class by EC50
Experimental: as §1, §2
as §2, with “ABT-263” for “ABT-737”

[15] = test system: CCRF-CEM; details: Homo sapiens, read-out: sensitivity class by EC50
Experimental: as §1, §2
as §2, with “ABT-263” for “ABT-737”

[16] = test system: CCRF-HSB-2; details: Homo sapiens, read-out: sensitivity class by EC50
Experimental: as §1, §2
as §2, with “ABT-263” for “ABT-737”

[17] = test system: WSU-NHL; details: Homo sapiens, read-out: sensitivity class by EC50
Experimental: as §1, §2
as §2, with “ABT-263” for “ABT-737”

[18] = test system: SUP-B15; details: Homo sapiens, read-out: sensitivity class by EC50
Experimental: as §1, §2
as §2, with “ABT-263” for “ABT-737”

[19] = test system: MOLT-4; details: Homo sapiens, read-out: sensitivity class by EC50
Experimental: as §1, §2
as §2, with “ABT-263” for “ABT-737”

[20] = test system: RPMI 8226; details: Homo sapiens, read-out: sensitivity class by EC50
Experimental: as §1, §2
as §2, with “ABT-263” for “ABT-737”

[21] = test system: CEM/C1; details: Homo sapiens, read-out: sensitivity class by EC50
Experimental: as §1, §2
as §2, with “ABT-263” for “ABT-737”

[22] = test system: Rs11380; details: Homo sapiens, read-out: sensitivity class by EC50
Experimental: as §1, §2
as §2, with “ABT-263” for “ABT-737”

[23] = test system: Raji; details: Homo sapiens, read-out: sensitivity class by EC50
Experimental: as §1, §2
as §2, with “ABT-263” for “ABT-737”

[24] = test system: Reh; details: Homo sapiens, read-out: sensitivity class by EC50
Experimental: as §1, §2
as §2, with “ABT-263” for “ABT-737”

[25] = test system: KG-1A; details: Homo sapiens, read-out: sensitivity class by EC50
Experimental: as §1, §2
as §2, with “ABT-263” for “ABT-737”

Row | pEC50 [1] | pEC50 [2] | pEC50 [3] | pEC50 [4] | pEC50 [5] | pEC50 [6] | pEC50 [7] | pEC50 [8] | pEC50 [9] | pEC50 [10] | pEC50 [11] | pEC50 [12] | pEC50 [13] | pEC50 [14] | pEC50 [15] | pEC50 [16] | pEC50 [17] | pEC50 [18] | pEC50 [19] | pEC50 [20] | SMILES | other results
1 | > 5.30 | > 5.30 | > 5.30 | > 5.30 | < 5.30 | < 5.30 | > 5.30 | > 5.30 | > 5.30 | > 5.30 | > 5.30 | > 5.30 | < 5.30 | < 5.30 | > 5.30 | > 5.30 | > 5.30 | > 5.30 | > 5.30 | > 5.30 | CC1(C)CCC(c2ccc(Cl)cc2)=C(CN2CCN(c3ccc(C(=O)NS(=O)(=O)c4ccc(N[C@H](CCN5CCOCC5)CSc5ccccc5)c(S(=O)(=O)C(F)(F)F)c4)cc3)CC2)C1 [ABT-263, N-(4-(4-((2-(4-chlorophenyl)-5,5-dimethyl-1-cyclohex-1-en-1-yl)methyl)piperazin-1-yl)benzoyl)-4-(((1R)-3-(morpholin-4-yl)-1-((phenylsulfanyl)methyl)propyl)amino)-3-((trifluoromethyl)sulfonyl)benzenesulfonamide] | pEC50 [21]: > 5.30; pEC50 [22]: > 5.30; pEC50 [23]: < 5.30; pEC50 [24]: > 5.30; pEC50 [25]: > 5.30
2 | > 5.30 | > 5.30 | > 5.30 | > 5.30 | < 5.30 | < 5.30 | > 5.30 | > 5.30 | > 5.30 | > 5.30 | > 5.30 | > 5.30 | < 5.30 | < 5.30 | > 5.30 | > 5.30 | > 5.30 | > 5.30 | > 5.30 | > 5.30 | CN(C)CC[C@H](CSc1ccccc1)Nc1ccc(S(=O)(=O)NC(=O)c2ccc(N3CCN(Cc4ccccc4-c4ccc(Cl)cc4)CC3)cc2)cc1[N+](=O)[O-] [ABT-737, N-(4-(4-((4′-chloro(1,1′-biphenyl)-2-yl)methyl)piperazin-1-yl)benzoyl)-4-(((1R)-3-(dimethylamino)-1-((phenylsulfanyl)methyl)propyl)amino)-3-nitrobenzenesulfonamide] | pEC50 [21]: > 5.30; pEC50 [22]: > 5.30; pEC50 [23]: < 5.30; pEC50 [24]: > 5.30; pEC50 [25]: > 5.30
